Key:
recombinant mGluR1 = target: T1, recombinant mGluR1 (Homo sapiens, UniProt Q13255); experiment: Assay of Group I receptor antagonist activity (FLIPR [Ca2+]i mobilization; secondary IP3 turnover) in cells expressing mGluR1; assay type: cell-based
T1 construct: expressed in transfected cells
Description: (§1) For FLIPR analysis, cells expressing human mGluR5d or recombinant mGluR1 as described in WO97/05252 were seeded on collagen coated clear bottom 96-well plates with black sides and analysis of [Ca^2+]i mobilization was done 24 h after seeding. FLIPR experiments were done using a laser setting of 0.800 W and a 0.4 second CCD camera shutter speed. Each FLIPR experiment was initiated with 160 μl of buffer present in each well of the cell plate. After each addition of the compound, the fluorescence signal was sampled 50 times at 1 second intervals followed by 3 samples at 5 second intervals. Responses were measured as the peak height of the response within the sample period. EC50 and IC50 determinations were made from data obtained from 8-point concentration response curves (CRC) performed in duplicate. Agonist CRC were generated by scaling all responses to the maximal response observed for the plate. […]
(§2) We have validated a secondary functional assay for mGluR5d or recombinant mGluR1 as described in WO97/05252 based on Inositol Phosphate (IP3) turnover. IP3 accumulation is measured as an index of receptor mediated phospholipase C turnover. […] Antagonist activity was determined by pre-incubating test compounds for 15 min, then incubating in the presence of glutamate (80 μM) or DHPG (30 μM) for 30 min. […]

human mGluR5d = target: T2, human mGluR5d (Homo sapiens, UniProt P41594); experiment: Assay of Group I receptor antagonist activity (FLIPR [Ca2+]i mobilization; secondary IP3 turnover) in cells expressing mGluR5d; assay type: cell-based; details: read-out: mGluR5 IC50
T2 construct: expressed in transfected cells
T2 sequence (P41594 21-942 isoform P41594-3 limits assumed): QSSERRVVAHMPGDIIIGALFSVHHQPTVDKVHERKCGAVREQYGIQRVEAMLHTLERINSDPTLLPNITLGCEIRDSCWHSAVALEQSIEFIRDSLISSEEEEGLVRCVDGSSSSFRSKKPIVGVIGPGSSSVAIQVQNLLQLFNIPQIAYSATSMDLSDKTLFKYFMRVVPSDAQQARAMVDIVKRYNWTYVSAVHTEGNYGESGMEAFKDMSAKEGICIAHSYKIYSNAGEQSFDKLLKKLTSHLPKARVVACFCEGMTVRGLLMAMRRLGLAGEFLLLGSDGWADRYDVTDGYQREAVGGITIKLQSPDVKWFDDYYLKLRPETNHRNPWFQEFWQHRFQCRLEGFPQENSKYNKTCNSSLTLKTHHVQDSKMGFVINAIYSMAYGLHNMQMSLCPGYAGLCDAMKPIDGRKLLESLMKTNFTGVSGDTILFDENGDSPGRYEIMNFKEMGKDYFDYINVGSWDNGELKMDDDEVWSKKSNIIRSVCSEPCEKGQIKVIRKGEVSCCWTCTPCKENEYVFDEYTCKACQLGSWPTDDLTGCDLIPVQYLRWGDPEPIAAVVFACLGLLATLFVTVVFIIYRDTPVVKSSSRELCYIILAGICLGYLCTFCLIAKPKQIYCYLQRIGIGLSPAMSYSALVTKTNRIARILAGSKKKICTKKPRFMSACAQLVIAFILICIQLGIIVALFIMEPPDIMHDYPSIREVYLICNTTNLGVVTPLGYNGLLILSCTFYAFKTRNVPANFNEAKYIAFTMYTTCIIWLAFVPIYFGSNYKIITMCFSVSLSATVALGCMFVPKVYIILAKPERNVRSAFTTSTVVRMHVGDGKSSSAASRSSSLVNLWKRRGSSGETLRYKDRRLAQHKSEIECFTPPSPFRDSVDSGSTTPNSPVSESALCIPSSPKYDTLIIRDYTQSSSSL
Description: as §1, §2

T1 sequence (Q13255 19-1194): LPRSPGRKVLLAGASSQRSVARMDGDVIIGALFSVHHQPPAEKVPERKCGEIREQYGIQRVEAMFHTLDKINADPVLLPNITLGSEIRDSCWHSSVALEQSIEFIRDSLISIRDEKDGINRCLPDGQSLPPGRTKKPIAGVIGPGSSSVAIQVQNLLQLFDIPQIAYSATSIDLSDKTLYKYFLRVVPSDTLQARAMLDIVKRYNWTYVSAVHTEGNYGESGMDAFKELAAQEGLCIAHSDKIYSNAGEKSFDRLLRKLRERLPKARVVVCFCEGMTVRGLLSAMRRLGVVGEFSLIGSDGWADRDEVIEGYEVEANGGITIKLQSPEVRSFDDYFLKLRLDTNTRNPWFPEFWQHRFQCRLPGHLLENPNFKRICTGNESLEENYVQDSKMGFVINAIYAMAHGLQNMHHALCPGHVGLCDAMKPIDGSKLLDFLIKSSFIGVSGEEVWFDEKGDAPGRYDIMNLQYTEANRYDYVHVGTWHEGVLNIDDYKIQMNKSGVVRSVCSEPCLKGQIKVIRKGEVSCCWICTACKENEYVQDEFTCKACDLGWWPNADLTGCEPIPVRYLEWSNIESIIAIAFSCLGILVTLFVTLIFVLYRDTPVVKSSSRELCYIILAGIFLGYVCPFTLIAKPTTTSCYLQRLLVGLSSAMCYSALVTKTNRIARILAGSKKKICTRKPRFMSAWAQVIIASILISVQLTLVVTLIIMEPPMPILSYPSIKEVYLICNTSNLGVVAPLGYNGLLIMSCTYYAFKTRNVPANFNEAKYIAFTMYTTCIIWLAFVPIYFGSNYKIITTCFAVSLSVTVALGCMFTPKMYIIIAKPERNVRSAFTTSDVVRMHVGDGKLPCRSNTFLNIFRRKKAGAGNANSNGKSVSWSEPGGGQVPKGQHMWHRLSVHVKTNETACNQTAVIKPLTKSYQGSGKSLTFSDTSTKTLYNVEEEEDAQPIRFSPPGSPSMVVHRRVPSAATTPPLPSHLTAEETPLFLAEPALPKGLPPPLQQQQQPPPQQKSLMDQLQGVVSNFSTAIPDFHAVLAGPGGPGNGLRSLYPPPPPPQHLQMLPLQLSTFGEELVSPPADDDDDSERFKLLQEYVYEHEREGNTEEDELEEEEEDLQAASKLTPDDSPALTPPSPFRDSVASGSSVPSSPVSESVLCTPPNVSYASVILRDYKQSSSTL

IC50 (recombinant mGluR1): 0.052 µM
IC50 (human mGluR5d): 7.29 µM
Structure (SMILES): CC1CCc2nc(C(=O)N[C@H]3CC[C@H](C)CC3)cnc2C1 (relative stereo) [6-methyl-N-(trans-4-methylcyclohexyl)-5,6,7,8-tetrahydroquinoxaline-2-carboxamide]

Source: patent US20050004130A1, “New metabotropic glutamate receptor compounds” (AstraZeneca and NPS Pharmaceuticals, Inc., priority 2003, published 2005)
